Experimental findings from US10370355B2, “Tetrahydroisoquinoline derivatives” (UCB Biopharma SPRL, priority 2016, dated 2019) are described below.

For the assay, the target named is T1, dopamine D1 receptor (Homo sapiens, UniProt P21728).
T1 construct: host or cells: LMtk (Ltk-) mouse fibroblast cells
T1 sequence (P21728 whole entry): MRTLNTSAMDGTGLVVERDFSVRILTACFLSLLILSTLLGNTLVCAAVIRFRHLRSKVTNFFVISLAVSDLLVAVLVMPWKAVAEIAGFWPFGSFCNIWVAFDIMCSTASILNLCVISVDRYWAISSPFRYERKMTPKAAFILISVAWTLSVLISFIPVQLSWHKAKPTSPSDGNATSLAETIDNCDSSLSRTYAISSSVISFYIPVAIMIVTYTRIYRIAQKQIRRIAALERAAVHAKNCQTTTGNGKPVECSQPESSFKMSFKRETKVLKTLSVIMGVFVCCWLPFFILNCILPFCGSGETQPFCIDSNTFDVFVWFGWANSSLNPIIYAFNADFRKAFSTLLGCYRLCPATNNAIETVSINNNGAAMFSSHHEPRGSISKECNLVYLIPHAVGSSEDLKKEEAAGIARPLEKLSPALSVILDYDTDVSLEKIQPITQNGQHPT
The experiment in a line: cAMP HTRF potentiation assay (presence of EC20 dopamine). The class given is cell-based. The following applies: potentiation of cAMP in presence of EC20 dopamine (1.1 nM); LMtk (Ltk-) mouse fibroblast cells expressing the dopamine D1 receptor. The text has this: The present assay allows to measure respectively the effects of compounds of the Examples in the absence of dopamine (“activation assay”) and the effects of compounds of the Examples in the presence of dopamine (“potentiation assay”).
The potentiation assay measures the ability of compounds to increase the levels of cAMP produced by a low-threshold concentration of dopamine. The concentration of dopamine used ([EC20]) is designed to produce 20% stimulation compared to the maximal response (100%) seen with increasing the concentration of dopamine. To measure this potentiation we incubate increasing concentrations of the compound with the [EC2O] of dopamine and measure the potentiation as increases in cAMP production. The pEC50 of a compound is the −log 10 of the concentration of the compound which produces 50% of the potentiation of the cAMP levels and the Erel is the relative efficacy, defined as the maximal % potentiation produced by the compound compared to the maximal response produced by increasing concentrations of dopamine (Erel of 1=dopamine maximum response).
Cells were cultured at 37° C. in a humidified atmosphere of 5% CO2. Cells were grown in DMEM-F12+GlutaMAX™-I medium (GIBCO®, Invitrogen, Merelbeke, Belgium) containing 10% fetal bovine serum (BioWhittaker®, Lonza, Verviers, Belgium), 400 μg/mL Geneticin (GIBCO®), 100 IU/mL Penicillin and 100 IU/mL Streptomycin (Pen-Strep solution, BioWhittaker®).
The measurement of changes in intracellular cyclic adenosinemonophopshpate (cAMP) was determined using the HTRF cAMP dynamic assay kit from CisBio (Codolet, France). Using homogenous time-resolved fluoresence technology, the assay is based on competition between native cAMP produced by cells and cAMP labelled with the dye d2. The tracer binding is determined by an anti-cAMP antibody labeled with cryptate. The effects of the compound alone (agonism) was determined by performing the assay in the absence of dopamine, whilst the effect of the compound as a positive allosteric modulator (PAM) was determined in the presence of an EC20 concentration of dopamine. Cells (20,000 per well) are incubated in 384 plates for 1 hour at room temperature in a final volume of 20 μLHBSS (Lonza, with calcium, magnesium and HEPES buffer 20 mM, pH 7.4) containing: isobutyl methylxanthine (Sigma, 0.1 mM final), varying concentrations of test compound (typically […] to 10^−4.5M) in the presence and absence of dopamine (1.1 nM final). The reaction is then terminated and the cells lysed by adding the d2 detection reagent in lysis buffer (10 microL) and the cryptate reagent in lysis buffer (10 microl) according to manufacturer's instructions. This is then incubated for a further 60 min at room temperature and changes in HTRF fluorescent emission ratio determined according to manufacturer's instructions using an Envision plate reader (Perkin Elmer, Zaventem, Belgium) with laser excitation. All incubations were performed in duplicate and results were compared to a concentration-effect curve to dopamine. (10^−11M to 10^−6M).
Data was analyzed using Excel and PRISM (GraphPad Software) to obtain pEC50 and Erel using the 4-parameter logistic equation (DeLean et al, 1978) where Erel is the fitted maximal response of the test compound minus basal expressed as a percentage relative to that obtained with dopamine which was defined as 100%.
As to `C[C@H]1c2cccc([C@](C)(O)CF)c2CCN1C(=O)Cc1c(Cl)ccn2ncc(Cl)c12` [Example 29, 2-(3,5-dichloropyrazolo[1,5-a]pyridin-4-yl)-1-[(1S)-5-[(1S)-2-fluoro-1-hydroxy-1-methyl-ethyl]-1-methyl-3,4-dihydro-1H-isoquinolin-2-yl]ethanone], the EC50 is no more than 31.6 nM.
To `C[C@H]1c2cccc([C@H](O)C(F)F)c2CCN1C(=O)Cc1c(Cl)ccc2[nH]nc(Cl)c12` [Example 5, 2-(3,5-dichloro-1H-indazol-4-yl)-1-[(1S)-5-[(1S)-2,2-difluoro-1-hydroxy-ethyl]-1-methyl-3,4-dihydro-1H-isoquinolin-2-yl]ethanone] belongs no more than 31.6 nM.
In the case of `C[C@H]1c2cccc([C@](C)(O)CF)c2CCN1C(=O)Cc1c(Cl)ccc2[nH]nc(Cl)c12` [Example 3, 2-(3,5-dichloro-1H-indazol-4-yl)-1-[(1S)-5-[(1S)-2-fluoro-1-hydroxy-1-methyl-ethyl]-1-methyl-3,4-dihydro-1H-isoquinolin-2-yl]ethanone], the EC50 is no more than 31.6 nM.
To `C[C@H]1c2cccc(C(O)(CF)CF)c2CCN1C(=O)Cc1c(Cl)cnc2c1c(Cl)nn2C` [Example 23, 2-(3,5-dichloro-1-methyl-pyrazolo[3,4-b]pyridin-4-yl)-1-[(1S)-5-[2-fluoro-1-(fluoromethyl)-1-hydroxy-ethyl]-1-methyl-3,4-dihydro-1H-isoquinolin-2-yl]ethanone] belongs 31.6 to 100 nM; to `C[C@H]1c2cccc([C@@H](O)C(F)F)c2CCN1C(=O)Cc1c(Cl)ccc2nn(C)c(Cl)c12` [Example 8, 2-(3,5-dichloro-2-methyl-indazol-4-yl)-1-[(1S)-5-[(1R)-2,2-difluoro-1-hydroxy-ethyl]-1-methyl-3,4-dihydro-1H-isoquinolin-2-yl]ethanone], no more than 31.6 nM; to `C[C@H]1c2cccc([C@@](C)(O)CF)c2CCN1C(=O)Cc1c(Cl)ccc2c1c(Cl)nn2C` [Example 24, 2-(3,5-dichloro-1-methyl-indazol-4-yl)-1-[(1S)-5-[(1R)-2-fluoro-1-hydroxy-1-methyl-ethyl]-1-methyl-3,4-dihydro-1H-isoquinolin-2-yl]ethanone], 31.6 to 100 nM.
To `C[C@H]1c2cccc([C@](C)(O)CF)c2CCN1C(=O)Cc1c(Cl)cnc2[nH]nc(Cl)c12` [Example 14, 2-(3,5-dichloro-1H-pyrazolo[3,4-b]pyridin-4-yl)-1-[(1S)-5-[(1S)-2-fluoro-1-hydroxy-1-methyl-ethyl]-1-methyl-3,4-dihydro-1H-isoquinolin-2-yl]ethanone] belongs no more than 31.6 nM.
To `C[C@H]1c2cccc([C@H](O)C(F)F)c2CCN1C(=O)Cc1c(Cl)ccc2c1c(Cl)nn2C` [Example 11, 2-(3,5-dichloro-1-methyl-indazol-4-yl)-1-[(1S)-5-[(1S)-2,2-difluoro-1-hydroxy-ethyl]-1-methyl-3,4-dihydro-1H-isoquinolin-2-yl]ethanone] belongs 31.6 to 100 nM; to `C[C@H]1c2cccc(C(C)(O)C(F)F)c2CCN1C(=O)Cc1c(Cl)ccc2c1c(Cl)nn2C` (single isomer, unassigned) [Example 26], 31.6 to 100 nM.
For the molecule `C[C@H]1c2cccc([C@H](O)C(F)F)c2CCN1C(=O)Cc1c(Cl)ccn2ncc(Cl)c12` [Example 30, 2-(3,5-dichloropyrazolo[1,5-a]pyridin-4-yl)-1-[(1S)-5-[(1S)-2,2-difluoro-1-hydroxy-ethyl]-1-methyl-3,4-dihydro-1H-isoquinolin-2-yl]ethanone], the concentration for a half-maximal effect (EC50) was no more than 31.6 nM.
With `C[C@H]1c2cccc(C(C)(O)C(F)F)c2CCN1C(=O)Cc1c(Cl)c(C#N)cn2ncc(Cl)c12` (single isomer, unassigned) [Example 32], the EC50 was no more than 31.6 nM.
To `C[C@H]1c2cccc(C(C)(O)C(F)F)c2CCN1C(=O)Cc1c(Cl)c(C2CC2)cn2ncc(Cl)c12` (single isomer, unassigned) [Example 31] belongs 31.6 to 100 nM; to `C[C@H]1c2cccc(C(O)(CF)CF)c2CCN1C(=O)Cc1c(Cl)cnc2[nH]nc(Cl)c12` [Example 18, 2-(3,5-dichloro-1H-pyrazolo[3,4-b]pyridin-4-yl)-1-[(1S)-5-[2-fluoro-1-(fluoromethyl)-1-hydroxy-ethyl]-1-methyl-3,4-dihydro-1H-isoquinolin-2-yl]ethanone], 31.6 to 100 nM.
To `C[C@H]1c2cccc([C@H](O)C(F)F)c2CCN1C(=O)Cc1c(Cl)ccc2onc(Cl)c12` [Example 1, 2-(3,5-dichloro-1,2-benzoxazol-4-yl)-1-[(1S)-5-[(1S)-2,2-difluoro-1-hydroxy-ethyl]-1-methyl-3,4-dihydro-1H-isoquinolin-2-yl]ethanone] belongs no more than 31.6 nM; to `C[C@H]1c2cccc(C(C)(O)C(F)F)c2CCN1C(=O)Cc1c(Cl)ccc2[nH]nc(Cl)c12` (single isomer, unassigned) [Example 6], no more than 31.6 nM.
